This is an account of results in patent publication EP1157000B1 (Warner-Lambert Company LLC, priority 1999, dated 2001).

Each structure is given as a SMILES string. Counter-ions that a name gives are not always drawn.

The target of the first test is T1, rBCATc (Rattus norvegicus, UniProt P54690).
T1 construct: The supernatant was dialyzed with at least three changes of dialysis buffer; from tissue; host or cells: rat brain (high-speed supernatant of homogenate, dialyzed)
T1 sequence (P54690 1-411): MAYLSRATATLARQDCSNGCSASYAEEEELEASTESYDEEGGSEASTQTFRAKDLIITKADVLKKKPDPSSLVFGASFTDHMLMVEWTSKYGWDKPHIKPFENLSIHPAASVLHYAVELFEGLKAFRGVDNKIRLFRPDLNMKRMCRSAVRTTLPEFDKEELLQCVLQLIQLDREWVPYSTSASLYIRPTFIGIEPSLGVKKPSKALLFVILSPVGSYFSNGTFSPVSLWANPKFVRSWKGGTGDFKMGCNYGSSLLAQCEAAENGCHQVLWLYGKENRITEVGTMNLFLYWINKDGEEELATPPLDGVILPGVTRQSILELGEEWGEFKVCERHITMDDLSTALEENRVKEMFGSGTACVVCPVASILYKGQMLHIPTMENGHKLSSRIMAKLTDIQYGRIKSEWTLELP
Kind of test: Assay of BCAT ([14C] L-leucine transamination, rat brain supernatant enzyme). The class given is biochemical. The following applies: 25 µM [14C] L-leucine, 10 mM 2-oxoglutarate, pH 8.3, 10 min, 22 °C; read-out: rBCATc IC50. The protocol: Enzyme preparation: Frozen rat brains were thawed on ice and minced into fine pieces. […] The samples were homogenized in Potters homogenizer (B. Bran Biotech International) at 500 rpm for ten strokes, followed by additional ten strokes at 800 rpm. The homogenates were centrifuged in Beckman J2-M1 centrifuge with rotor JA-20 at 19, 000 rpm for 1 hr. […] The resulting enzyme was stored at -80 °C for further assays.
The solutions for the reaction mixture were made in 10-fold concentrations. After 10 min incubation at room temperature (22 °C), the reaction was stopped by adding 100 µl of 15 mM p-nitrophenyl hydrazine in 2 M HCL. After a few minutes, 1 mL of a toluene-based scintillation liquid (4.5 g of PPO and 0.5 g ofbis-MSB in 1 liter of toluene) was added, the tube was capped and mixed thoroughly with a Vortex mixer. […] Six hundreds µl of organic layer from each tube was placed into scintillation vials, followed by adding 10 ml of scintillation cocktail for counting.
As for `C[C@@H]1C[C@H](C)CC(CNCC2CCCC2)(CC(=O)O)C1` (stereo partly drawn) [Example 45, {(3R, 5S)-1-[(Cyclopentylmethyl-amino)-methyl]-3,5-dimethylcyclohexyl}-acetic acid; hydrochloride salt], the IC50 was 1330 µM.

As for `CN(Cc1ccccc1)CC1(CC(=O)O)CCCCC1` [Example 55, {1-[(Benzyl-methyl-amino)-methyl]-cycloheayl}-acetic acid; hydrochloride salt], the IC50 came to 9240 µM.

In the case of `CCC1CCC(CN)(CC(=O)O)CC1` (stereo not drawn) [Example 60, (1-Aminomethyl-4-ethyl-cyclohexyl)-acetic acid; hydrochloric salt], the 50% inhibitory concentration (IC50) turned out to be 11500 µM.

Consider `CC1CC(C)CC(CC(=O)O)(CN(C)C)C1` (stereo not drawn) [Example 12, 1α,3β,5β-(1-Dimethylaminomethyl-3,5-dimethyl-cyclohexyl)-acetic acid; hydrochloride salt], for which the IC50 turned out to be 1490 µM.

Turning to `NCC1(CC(=O)O)CCCC1` [Example 24, Sodium salt of 1-aminomethyl-1-cyclopentane-acetic acid], the IC50 worked out at 942 µM.

Regarding `O=C(O)CC1(CO)CCCCC1` [Example 25, Sodium salt of 1-(hydroxymethyl)cyclohexane-acetic acid], the IC50 is 170 µM.

Consider `CCNCC1(CC(=O)O)CC(C)CC(C)C1` (stereo not drawn) [Example 10, 1α,3β,5β-(1-Ethylaminomethyl-3,5-dimethyl-cyclohexyl)-acetic acid hydrochloride salt], for which the IC50 was determined as 121 µM.

For the molecule `CCCNCC1(CC(=O)O)CCCCC1` [Example 32, (1-Propylaminomethyl-cyclohexyl)-acetic acid hydrochloride salt], the IC50 was found to be 243 µM.

Consider `C[C@@H]1C[C@H](C)C[C@@](CO)(CC(=O)O)C1` [Example 50, cis-((3R, 5S)-1-Hydroxymethyl-3,5-dimethyl-cyclohexyl-acetic acid; hydrochloride salt], for which the IC50 is 842 µM.

Turning to `CCCCNC[C@@]1(CC(=O)O)C[C@H](C)C[C@H](C)C1` [Example 13, 1α,3β,5β-(1-Butylaminomethyl-3,5-dimethyl-cyclohexyl)-acetic acid; hydrochloride salt], the IC50 is above 10000 µM.

On to `C[C@@H]1C[C@H](C)CC(CNCC2CCCCC2)(CC(=O)O)C1` (stereo partly drawn) [Example 46, {(3R, 5S)-1-[(Cyclohexylmethyl-amino)-methyl]-3,5-dimethylcyclohexyl}-acetic acid; hydrochloride salt], for which the IC50 came out at 1130 µM.

Turning to `CC(C)(C)OC(=O)NCC1(CC(=O)O)CCCCC1` [Example 39, [1-(tert-Butoxycarbonylamino-methyl)-cyclohexyl]-acetic acid], the IC50 was 933 µM.

In the case of `C[C@@H]1CC(CN)(CC(=O)O)C[C@H]1C` (racemic) [Example 4, (±)-(trans)-(1-Aminomethyl-3,4-dimethyl-cyclopentyl)-acetic acid hydrochloride], the IC50 worked out at 2510 µM.

`C[C@@H]1C[C@H](C)C[C@](CO)(CC(=O)O)C1` [Example 49, trans-((3R, 5S)-1-Hydroxymethyl-3,5-dimethyl-cyclohexyl-acetic acid; hydrochloride salt]: the IC50 is 84 µM.

Regarding `C[C@@H]1CCC(CN)(CC(=O)O)C1` (mixture of isomers) [Example 5, (cis/trans)-(3R)-(1-Aminomethyl-3-methyl-cyclopentyl)-acetic acid hydrochloride], the IC50 was 2930 µM.

With `O=C(O)CC1(CNC2CCCCC2)CCCCC1` [Example 34, (1-Cyclohexylaminomethyl-cyclohexyl)-acetic acid hydrochloride salt], the IC50 amounted to 3220 µM.

`CC(C)NC[C@@]1(CC(=O)O)C[C@H](C)C[C@H](C)C1` [Example 21, 1α,3β,5β-(1-(Isopropylamino-methyl)-3,5-dimethyl-cyclohexyl]-acetic acid hydrochloride salt]: the IC50 turned out to be 169 µM.

For `C[C@@H]1C[C@H](C)CC(CNC2CCC2)(CC(=O)O)C1` (stereo partly drawn) [Example 41, ((3R, 5S)-1-Cyclobutylaminomethyl-3,5-dimethyl-cyclohexyl)-acetic acid; hydrochloride salt], the IC50 stood at 363 µM.

For `O=C(O)CC1(CNCc2ccccc2)CCCCC1` [Example 35, [1-(Benzylamino-methyl)-cyclohexyl]-acetic acid hydrochloride salt], the IC50 worked out at 1770 µM.

Regarding `CC(C)CNCC1(CC(=O)O)CCCCC1` [Example 31, [1-(Isobutylamino-methyl)-cyclohexyl]-acetic acid hydrochloride salt], the IC50 amounted to 908 µM.

With `C[C@@H]1CCC[C@](CN)(CC(=O)O)C1` [Example 1, trans-(1R,3R)(1-Aminomethyl-3-methyl-cyclohexyl)-acetic acid hydrochloride], the IC50 is 146 µM.

Consider `CCNCC1(CC(=O)O)C[C@H](C)C[C@H](C)C1` (stereo in doubt) [Example 59, ((3R, 5S)-1-Ethylaminomethyl-3,5-dimethyl-cyclohexyl)-acetic acid; hydrochloride salt], for which the IC50 amounted to 3370 µM.

As to `CC(C)CNC[C@@]1(CC(=O)O)C[C@H](C)C[C@H](C)C1` [Example 17, 1α,3β,5β-(1-(Isobutylamino-methyl)-3,5-dimethyl-cyclohexyl]-acetic acid hydrochloride salt], the IC50 is above 10000 µM.

`CNC[C@@]1(CC(=O)O)C[C@H](C)C[C@H](C)C1` [Example 15, 1α,3β,5β-(3,5-Dimethyl-1-methylaminomethyl-cyclohexyl)-acetic acid; hydrochloride salt]: the IC50 was 82 µM.

As for `COC(CNCC1(CC(=O)O)C[C@H](C)C[C@H](C)C1)OC` (stereo partly drawn) [Example 44, {(3R, 5S)-1-[(2,2-Dimethoxy-ethylamino)-methyl]-3,5-dimethylcyclohexyl}-acetic acid; hydrochloride salt], the IC50 came to 2730 µM.

For `CC(CO)NCC1(CC(=O)O)CCCCC1` (stereo not drawn) [Example 30, {1-[(2-Hydroxy-1-methyl-ethylamino)-methyl]-cyclohexyl}-acetic acid hydrochloride salt], the IC50 is 2250 µM.

With `C[C@@H]1C[C@H](C)C[C@](CNCc2ccccc2)(CC(=O)O)C1` [Example 11, 1α,3β,5β-(1-Benzylamino-methyl)-3,5-dimethyl-cyclohexyl]-acetic acid; hydrochloride salt], the IC50 was 1390 µM.

As for `NCC1(CC(=O)O)CCCC1` [Example 23, 1-Aminomethyl-1-cyclopentane-acetic acid], the IC50 is 2120 µM.

`CC(C)NCC1(CC(=O)O)CCCCC1` [Example 33, [1-(Isopropylamino-methyl)-cyclohexyl]-acetic acid hydrochloride salt]: the IC50 was found to be 1020 µM.

As for `CC(=O)NCC1(CC(=O)O)CCCCC1` [Example 40, [1-(Acetylamino-methyl)-cyclohexyl]-acetic acid], the IC50 is 3800 µM.

As for `CCCCNCC1(CC(=O)O)CCCCC1` [Example 52, (1-Butylaminomethyl-cyclohexyl)-acetic acid; hydrochloride salt], the IC50 was 2520 µM.

Take `CC(=O)NC[C@@]1(CC(=O)O)C[C@H](C)C[C@H](C)C1` [Example 16, 1α,3β,5β-[1-(Acetylamino-methyl)-3,5-dimethyl-cyclohexyl]-acetic acid]: the 50% inhibitory concentration (IC50) stood at 1320 µM.

Take `C[C@@H]1C[C@H](C)CC(CO)(CC(=O)O)C1` (stereo partly drawn) [Example 58, ((3R, 5S)-1-Hydroxymethyl-3,5-dimethyl-cyclohexyl)-acetic acid; sodium salt]: the IC50 turned out to be 179 µM.

Regarding `NCC1(CC(=O)O)CCCCC1` [Example 22, 1-Aminomethyl-1-cyclohexane-acetic acid], the IC50 is 389 µM.

As to `CCNCC1(CC(=O)O)CCCCC1` [Example 28, (1-Ethylaminomethyl-cyclohexyl)-acetic acid hydrochloride salt], the IC50 stood at 181 µM.

As for `CCC(C)CNCC1(CC(=O)O)C[C@H](C)C[C@H](C)C1` (stereo partly drawn) [Example 42, {(3R, 5S)-3,5-Dimethyl-1-[(2-methyl-butylamino)-methyl]-cyclohexyl}-acetic acid; hydrochloride salt], the IC50 worked out at 669 µM.

With `CN(C)CC1(CC(=O)O)CCCCC1` [Example 51, (1-Dimethylaminomethyl-cyclohexyl)-acetic acid; hydrochloride salt], the IC50 was above 10000 µM.

Regarding `CCCC1CCC(CN)(CC(=O)O)CC1` (stereo not drawn) [Example 61, (1-Aminomethyl-4-propyl-cyclohexyl)-acetic acid; hydrochloric salt], the IC50 came to 114 µM.

The same test, now with this note: rBCATc IC50, 25 µM [14C] L-leucine, 10 mM 2-oxoglutarate, pH 8.3, 10 min, 22 °C.
With `CC1(C)CCCC(CN)(CC(=O)O)C1` (stereo not drawn) [Example 3, (1-Aminomethyl-3,3-dimethyl-cyclohexyl)-acetic acid hydrochloride], the IC50 came out at 1660 µM.
